Patent US6274715A, “Tricyclic erythromycin derivatives” (priority 1997, dated 2001)
Values after ≈ are worked out from the molar mass of the structure shown.

Experiments:
Type in all cases: cell-based
[1] = system: KLEBSIELLA PNEUMONIAE ATCC 8045; assay: In vitro antibacterial activity, MIC, BHI agar dilution; conditions: K. pneumoniae ATCC 8045, unit assumed
[2] = system: MYCOBACTERIUM SMEGMATIS ATCC 114; assay: as above; conditions: M. smegmatis ATCC 114, unit assumed
[3] = system: STREPTOCOCCUS PYOGENES 930; assay: as above; conditions: S. pyogenes 930, unit assumed
[4] = system: PROVIDENCIA STUARTII CMX 640; conditions: P. stuartii CMX 640; BHI agar; unit assumed
[5] = system: STAPHYLOCOCCUS EPIDERMIDIS 3519; conditions: S. epidermidis 3519; BHI agar; unit assumed
[6] = system: STAPHYLOCOCCUS AUREUS CMX 642A; assay: In vitro antibacterial activity, MIC, BHI agar dilution; conditions: S. aureus CMX 642A, unit assumed
[7] = system: PSEUDOMONAS AERUGINOSA K799/61; assay: as above; conditions: P. aeruginosa K799/61, unit assumed
[8] = system: PSEUDOMONAS AERUGINOSA K799/WT; assay: as above; conditions: P. aeruginosa K799/WT, unit assumed
ESCHERICHIA COLI H560 = assay: as above; conditions: E. coli H560, unit assumed
[9] = system: PSEUDOMONAS AERUGINOSA DPHD-5263; assay: as above; conditions: P. aeruginosa DPHD-5263, unit assumed
[10] = system: STAPHYLOCOCCUS AUREUS A-5278; assay: as above; conditions: S. aureus A-5278, unit assumed
ESCHERICHIA COLI JUHL = conditions: E. coli JUHL; BHI agar; unit assumed
ESCHERICHIA COLI DC-2 = assay: In vitro antibacterial activity, MIC, BHI agar dilution; conditions: E. coli DC-2, unit assumed
[11] = system: STAPHYLOCOCCUS AUREUS ATCC 6538P; assay: as above; conditions: S. aureus ATCC 6538P, 35-37° C., 20 to 24 hours, unit assumed
[12] = system: STREPTOCOCCUS PYOGENES EES61; assay: as above; conditions: S. pyogenes EES61, unit assumed
STR[…] 508 = assay: as above; conditions: S. agalactiae CMX 508, unit assumed
Summary of the method: (§1)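 Agar dilution in BHI: plates inoculated with 1:100 dilutions of organisms (1:10 for Micrococcus and Streptococcus), incubated 20-24 h at 35-37° C, then inspected for the lowest inhibitory concentration against a drug-free growth control.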

M[…] ATCC 4698 = assay: as above; conditions: M. luteus ATCC 4698, unit assumed
Summary of the method: as §1

EN[…] ATCC 8043 = assay: as above; conditions: E. faecium ATCC 8043, unit assumed
Summary of the method: as §1

M[…] ATCC 9341 = assay: as above; conditions: M. luteus ATCC 9341, unit assumed
Summary of the method: as §1

[13] = system: ENTEROBACTER AEROGENES ATCC 13048; assay: as above; conditions: E. aerogenes ATCC 13048, unit assumed
[14] = system: STREPTOCOCCUS BOVIS A-5169; assay: as above; conditions: S. bovis A-5169, unit assumed
CANDIDA ALBICANS CCH 442 = assay: as above; conditions: C. albicans CCH 442, unit assumed
[15] = system: PSEUDOMONAS AERUGINOSA DPHD-2862; assay: as above; conditions: P. aeruginosa DPHD-2862, unit assumed
PSEUDOMONAS CEPACIA 296I = assay: as above; conditions: P. cepacia 296I, unit assumed
[16] = system: ACINETOBACTER CALCOACETICUS CMX 669; assay: as above; conditions: A. calcoaceticus CMX 669, unit assumed
[17] = system: PSEUDOMONAS AERUGINOSA BMH10; assay: as above; conditions: P. aeruginosa BMH10, unit assumed
[18] = system: STAPHYLOCOCCUS AUREUS CMX 553; assay: as above; conditions: S. aureus CMX 553, unit assumed
ESCHERICHIA COLI KNK 437 = conditions: E. coli KNK 437; BHI agar; unit assumed
[19] = system: STREPTOCOCCUS PYOGENES PIU 2548; assay: In vitro antibacterial activity, MIC, BHI agar dilution; conditions: S. pyogenes PIU 2548, unit assumed
[20] = system: PSEUDOMONAS AERUGINOSA 5007; assay: as above; conditions: P. aeruginosa 5007, unit assumed
[21] = system: STAPHYLOCOCCUS AUREUS 1775; assay: as above; conditions: S. aureus 1775, unit assumed
ESCHERICHIA COLI SS = assay: as above; conditions: E. coli SS, unit assumed
[22] = system: STAPHYLOCOCCUS AUREUS NCTC10649M; assay: as above; conditions: S. aureus NCTC10649M, unit assumed

Structure (SMILES)	MIC [2] [µg/mL]	MIC [3] [µg/mL]	MIC [4] [µg/mL]	MIC [5] [µg/mL]	MIC [6] [µg/mL]	MIC (ESCHERICHIA COLI H560) [µg/mL]	MIC [9] [µg/mL]	MIC [10] [µg/mL]	MIC (ESCHERICHIA COLI JUHL) [µg/mL]	MIC [11] [µg/mL]	MIC (M[…] ATCC 9341) [µg/mL]	MIC [13] [µg/mL]	MIC [14] [µg/mL]	MIC (CANDIDA ALBICANS CCH 442) [µg/mL]	MIC [15] [µg/mL]	MIC (PSEUDOMONAS CEPACIA 296I) [µg/mL]	MIC [16] [µg/mL]	MIC [17] [µg/mL]	MIC [19] [µg/mL]	MIC [20] [µg/mL]	other results
CC[C@H]1OC(=O)[C@H](C)C(=O)[C@H](C)[C@@H](O[C@@H]2O[C@H](C)C[C@H](N(C)C)[C@H]2O)[C@](C)(OC)C[C@@H](C)C2=N[C@H](COCc3cccc(Cl)c3)CN3C(=O)O[C@@]1(C)[C@H]3[C@H]2C [Example 80]	1.56 (≈ 1.97 µM)	50 (≈ 63.1 µM)	> 100	0.39 (≈ 0.492 µM)	0.39 (≈ 0.492 µM)	> 100	> 100	100 (≈ 126 µM)	> 100	0.39 (≈ 0.492 µM)	0.05 (≈ 0.0631 µM)	> 100	≤ 0.005	100 (≈ 126 µM)	> 100	100 (≈ 126 µM)	100 (≈ 126 µM)	> 100	0.2 (≈ 0.252 µM)	> 100	MIC [1]: > 100 µg/mL; MIC [7]: 3.1 µg/mL (≈ 3.91 µM); MIC [8]: > 100 µg/mL; MIC (ESCHERICHIA COLI DC-2): > 100 µg/mL; MIC [12]: 0.01 µg/mL (≈ 0.0126 µM); MIC (STR[…] 508): ≤ 0.005 µg/mL; MIC (M[…] ATCC 4698): 0.2 µg/mL (≈ 0.252 µM); MIC (EN[…] ATCC 8043): 0.05 µg/mL (≈ 0.0631 µM); MIC [18]: 0.39 µg/mL (≈ 0.492 µM); MIC (ESCHERICHIA COLI KNK 437): > 100 µg/mL; MIC [21]: 100 µg/mL (≈ 126 µM); MIC (ESCHERICHIA COLI SS): 1.56 µg/mL (≈ 1.97 µM)
CC[C@H]1OC(=O)[C@H](C)C(=O)[C@H](C)[C@@H](O[C@@H]2O[C@H](C)C[C@H](N(C)C)[C@H]2O)[C@](C)(OC)C[C@@H](C)C2=N[C@H](C)[C@H](C)N3C(=O)O[C@@]1(C)[C@H]3[C@H]2C [Example 10]	6.2 (≈ 9.31 µM)	> 100	> 100	0.39 (≈ 0.586 µM)	0.39 (≈ 0.586 µM)	25 (≈ 37.5 µM)	> 100	> 100	25 (≈ 37.5 µM)	0.39 (≈ 0.586 µM)	0.1 (≈ 0.15 µM)	50 (≈ 75.1 µM)	0.05 (≈ 0.0751 µM)	> 100	> 100	100 (≈ 150 µM)	25 (≈ 37.5 µM)	> 100	0.39 (≈ 0.586 µM)	> 100	MIC (ESCHERICHIA COLI DC-2): 25 µg/mL (≈ 37.5 µM); MIC (M[…] ATCC 4698): 0.2 µg/mL (≈ 0.3 µM); MIC [18]: 0.39 µg/mL (≈ 0.586 µM); MIC [21]: > 100 µg/mL; MIC [22]: 0.39 µg/mL (≈ 0.586 µM); MIC (ESCHERICHIA COLI SS): 0.2 µg/mL (≈ 0.3 µM)
CC[C@H]1OC(=O)[C@H](C)C(=O)[C@H](C)[C@@H](O[C@@H]2O[C@H](C)C[C@H](N(C)C)[C@H]2O)[C@](C)(OC)C[C@@H](C)C2=NC[C@@H](CCCc3ccccc3)N3C(=O)O[C@@]1(C)[C@H]3[C@H]2C [Example 36]	0.39 (≈ 0.516 µM)	50 (≈ 66.1 µM)	100 (≈ 132 µM)	0.2 (≈ 0.265 µM)	0.2 (≈ 0.265 µM)	25 (≈ 33.1 µM)	50 (≈ 66.1 µM)	> 100	50 (≈ 66.1 µM)	0.2 (≈ 0.265 µM)	0.05 (≈ 0.0661 µM)	25 (≈ 33.1 µM)	0.01 (≈ 0.0132 µM)	100 (≈ 132 µM)	50 (≈ 66.1 µM)	50 (≈ 66.1 µM)	50 (≈ 66.1 µM)	50 (≈ 66.1 µM)	0.39 (≈ 0.516 µM)	100 (≈ 132 µM)	MIC [1]: 50 µg/mL (≈ 66.1 µM); MIC [7]: 1.56 µg/mL (≈ 2.06 µM); MIC [8]: 50 µg/mL (≈ 66.1 µM); MIC (STR[…] 508): 0.05 µg/mL (≈ 0.0661 µM); MIC (EN[…] ATCC 8043): 0.2 µg/mL (≈ 0.265 µM); MIC (ESCHERICHIA COLI KNK 437): 12.5 µg/mL (≈ 16.5 µM); MIC [21]: > 100 µg/mL; MIC [22]: 0.2 µg/mL (≈ 0.265 µM)
